Source: patent publication US9504676B2, “Molecules inhibiting a metabolic pathway involving the Syk protein tyrosine kinase and method for identifying said molecules” (CENTRE NATIONAL DE LA RECHERCHE SCIENTIFIQUE, priority 2008, dated 2016)
≈ marks a conversion by molar mass, not a printed value.

Legend:
RBL-2H3 cells = assay: cells; format: cell-based, rat; details: Rattus norvegicus; RBL-2H3 cells; read-out: Degran. IC50: concentration inhibiting mast cell degranulation by 50%
Method: These 87 molecules were also tested in vitro to assess the ability thereof to inhibit RBL-2H3 cell degranulation (see table 1).
(§1) • 1) Chemical products and antibodies. A chemical bank of 3000 molecules (a varied subset) was acquired from ChemBridge, Inc. (San Diego, Calif.). Stocks of solutions of small molecules were prepared at a rate of 10 mM in DMSO (dimethylsulphoxide), except for C-13 (methyl 2-{5-[(3-benzyl-4-oxo-2-thioxo-1,3-thiazolidin-5-ylidene)methyl]-2-furyl}benzoate, ChemBridge ID No. 6197026) prepared in DMF (dimethylformamide). Unless specified otherwise, all the reagents were supplied by Sigma. Dinitrophenyl (DNP) hapten was acquired from Calbiochem. Sepharose GammaBind G and all the secondary antibodies were supplied by GE Health Amersham Biosciences. The anti-Syk, anti-Lyn, anti-Btk, anti-PLC-γ1, anti-PLC-γ2, anti-LAT, anti-SLP-76, anti-p38, anti-JNK, anti-Vav, anti-Akt1 and 9E10 antibodies conjugated with HRP were acquired from Santa Cruz Biotechnology. The anti-phospho-p44/42 MAP Kinase, anti-p44/42 MAP Kinase, anti-phospho-p38, anti-phospho-JNK, anti-phospho-Akt1 antibodies were acquired from Cell Signaling. The anti-phospho-LAT and anti-phospho-PLC-γ1 antibodies were supplied by Biosource and the anti-phospho-SLP-76 antibodies by BD Pharmingen. The 4G10 anti-phosphotyrosine monoclonal antibody was acquired from Upstate Biotechnology. • 2) ADA method: ELISA type high-speed molecule screening test, based on antibody displacement (WO 2005106481). The recombinant fusion protein GST:Syk 6-242^8 comprising the residues 6 to 242 of murine Syk tyrosine kinase protein illustrated in FIG. 8B (SEQ ID No. 4) was immobilised on an ELISA plate at a final concentration of 10 μg ml^−1. For the screening of the chemical molecule bank, the small molecules, diluted in PBS at a final concentration of 10 μM were added to the wells for one hour at ambient temperature, before adding the fragment scFv G4G11 at a final concentration of 100 nM for an additional hour. The binding of G4G11 with Syk was assessed by adding the 9E10 monoclonal antibody conjugated with HRP detecting the amino acid sequence EQKLISEEDLN of human c-myc protein located at the C-terminal end of the scFv fragment. To generate Syk mutants, targeted mutagenesis was used on GST:Syk 6-242 protein and the binding of G4G11 with the mutants was assessed in the presence of 5 μM of C-13. • 3) Cells, culture conditions and functional tests. Anti-DNP 2682-I mouse monoclonal antibody was used as the culture supernatant of hybridomas containing 1 μg/ml of IgE. Femoral bone marrow cells were sampled and cultured in Opti-MEM medium (Gibco) supplemented with 10% foetal calf serum and 4% X63 transfectant supernatant secreting murine IL-3. RBL-2H3 (ATCC) leukaemic rat basophil cells were maintained in a single-layer culture in RPMI 1640 medium supplemented with 10% foetal calf serum (Gibco). Measurements of β-hexosaminidase released by the RBL-2H3 cells were performed as described previously^7, except that, after 12-16 hours of incubation with anti-DNP IgE (0.5 μg/ml), the cells were incubated for 90 min at 37° C. in RPMI medium supplemented with the specified concentrations of C-13 or DMF (0.25%). The cells were stimulated for 45 min with DNP-BSA (50 ng ml^−1) or ionomycin (1.5 μM). The BMMC cells were incubated for one hour at 37° C. with anti-DNP IgE (100 ng/ml). They were then incubated with C-13 (3 μM) or DMF (0.3%) for 3 hours at 37° C., and stimulated with varied concentrations of DNP-BSA. The level of β-hexosaminidase released was measured 10 min later and the TNF-α titration was performed by means of a cytotoxicity test on L929 cells as described previously^10, 3 hours after stimulation. The results illustrated in FIG. 3 are representative of three independent experiments. • 4) Immunoprecipitations, in vitro kinase assays and immunodetection. […]

[1] = biological target: T1, murine Syk tyrosine kinase protein (GST:Syk 6-242) (Mus musculus, UniProt P48025); assay: ADA method: displacement of the binding of scFv G4G11 with Syk (ELISA); details: small molecules at 10 μM, scFv G4G11 100 nM; read-out: In vit. inhib.: mean inhibition % of the binding of scFv G4G11 with Syk in the ADA method
T1 construct: made in house
From the text: The term “percentage of inhibition” of the binding of an antibody or antibody fragment with Syk protein, particularly refers to the ratio […], where A consists of the intensity of a signal proportional to the quantity of an antibody or antibody fragment bound with Syk protein in the absence of a molecule according to the invention and B the intensity of the same signal in the presence of a molecule according to the invention under the same conditions. […] This test may be performed for example according to the protocol described in example 3-2) hereinafter.
The inventors developed the ADA (Antigen Displacement Assay) method to identify small molecules capable of displacing the association with scFv G4G11 with Syk. […] To understand the mode of action of C-13, the inventors firstly identified the binding site of G4G11 using the SPOT method^16. An epitope located on the N-terminal SH2 domain of Syk, comprising amino acids 65-74 and 100% preserved in mouse, rat and human sequences, was identified.
The ADA method was then applied to each of these […] molecules to measure the ability thereof to inhibit the binding of scFv G4G11 with Syk.
as §1, with “(Gibco).” for “(Gibco). Measurements of β-hexosaminidase released by the RBL-2H3 cells were performed as described previously^7, except that, after 12-16 hours of incubation with anti-DNP IgE (0.5 μg/ml), the cells were incubated for 90 min at 37° C. in RPMI medium supplemented with the specified concentrations of C-13 or DMF (0.25%). The cells were stimulated for 45 min with DNP-BSA (50 ng ml^−1) or ionomycin (1.5 μM). The BMMC cells were incubated for one hour at 37° C. with anti-DNP IgE (100 ng/ml). They were then incubated with C-13 (3 μM) or DMF (0.3%) for 3 hours at 37° C., and stimulated with varied concentrations of DNP-BSA. The level of β-hexosaminidase released was measured 10 min later and the TNF-α titration was performed by means of a cytotoxicity test on L929 cells as described previously^10, 3 hours after stimulation. The results illustrated in FIG. 3 are representative of three independent experiments. • 4) Immunoprecipitations, in vitro kinase assays and immunodetection.”

SMILES | IC50 (RBL-2H3 cells) | inhibition at 10 µM [1]
COc1ccc(C2C(C(=O)c3cccs3)=C(O)C(=O)N2CCN2CCOCC2)cc1OC (centres unmarked) [Molecule 38, 5-(3,4-dimethoxyphenyl)-3-hydroxy-1-[2-(4-morpholinyl)ethyl]-4-(2-thienylcarbonyl)-1,5-dihydro-2H-pyrrol-2-one] | > 10 µg/mL | 50%
COc1cccc2cc(C(=O)C3=C(O)C(=O)N(CCN4CCOCC4)C3c3cccc(Br)c3)oc12 (centres unmarked) [Molecule 85, 5-(3-bromophenyl)-3-hydroxy-4-[(7-methoxy-1-benzofuran-2-yl)carbonyl]-1-[2-(4-morpholinyl)ethyl]-1,5-dihydro-2H-pyrrol-2-one] | ~10 µg/mL (≈ 18.5 µM) | 18%
COc1ccc(C2C(C(=O)c3ccc(Cl)cc3)=C(O)C(=O)N2CCN2CCOCC2)cc1OC (centres unmarked) [Molecule 27, 4-(4-chlorobenzoyl)-5-(3,4-dimethoxyphenyl)-3-hydroxy-1-[2-(4-morpholinyl)ethyl]-1,5-dihydro-2H-pyrrol-2-one] | > 10 µg/mL | 55%
COc1cccc(C2C(C(=O)c3ccccc3)=C(O)C(=O)N2CCCN2CCOCC2)c1OC (centres unmarked) [Molecule 74, 4-benzoyl-5-(2,3-dimethoxyphenyl)-3-hydroxy-1-(3-(4-morpholinyl)propyl]-1,5-dihydro-2H-pyrrol-2-one] | > 10 µg/mL | 27.5%
O=C(Nc1ccccc1C(=O)N1CCCC1)c1ccc(CN2CCc3ccccc3C2)cc1 [Molecule 78, 4-(3,4-dihydro-2(1H)-isoquinolinyl-methyl)-N-[2-(1-pyrrolidinylcarbonyl)phenyl]benzamide] | > 10 µg/mL | 25%
COc1ccc(C2C(C(=O)c3ccco3)=C(O)C(=O)N2CCN2CCOCC2)cc1OC (centres unmarked) [Molecule 35, 5-(3,4-dimethoxyphenyl)-4-(2-furoyl)-3-hydroxy-1-[2-(4-morpholinyl)ethyl]-1,5-dihydro-2H-pyrrol-2-one] | > 10 µg/mL | 50%
COc1cccc(C2C(C(=O)c3ccc(F)cc3)=C(O)C(=O)N2CCCN2CCOCC2)c1 (centres unmarked) [Molecule 24, 4-(4-fluorobenzoyl)-3-hydroxy-5-(3-methoxyphenyl)-1-[3-(4-morpholinyl)propyl]-1,5-dihydro-2H-pyrrol-2-one] | > 10 µg/mL | 57%
COc1cccc(C2C(C(=O)c3ccc(Cl)cc3)=C(O)C(=O)N2CCN2CCOCC2)c1 (centres unmarked) [Molecule 71, 4-(4-chlorobenzoyl)-3-hydroxy-5-(3-methoxyphenyl)-1-[2-(4-morpholinyl)ethyl]-1,5-dihydro-2H-pyrrol-2-one] | > 10 µg/mL | 29%

The remaining lines, values ahead:

IC50 (RBL-2H3 cells) | inhibition at 10 µM [1] | SMILES
> 10 µg/mL | 24.5% | CCOC(=O)C1CCN(C(=O)c2ccc(CN(c3ccc(C)c(C)c3)S(C)(=O)=O)cc2)CC1 [Molecule 80, ethyl 1-(4-{[(3,4-dimethylphenyl) (methyl sulphonyl)amino]methyl}benzoyl)-4-piperidine carboxylate]
~10 µg/mL (≈ 20.2 µM) | 42% | COc1cccc(C2C(C(=O)c3cc(C)ccc3C)=C(O)C(=O)N2CCCN2CCOCC2)c1OC (centres unmarked) [Molecule 56, 5-(2,3-dimethoxyphenyl)-4-(2,5-dimethylbenzoyl)-3-hydroxy-1-[3-(4-morpholinyl)propyl]-1,5-dihydro-2H-pyrrol-2-one]
> 10 µg/mL | 30% | COc1cccc(C(=O)N(Cc2cc3ccc(C)cc3nc2C)c2ccccc2OC)c1 [Molecule 70]
~10 µg/mL (≈ 22.8 µM) | 40% | Cc1cc(C)c(OCC(=O)N2CCN(C(=O)COc3c(C)cc(C)cc3C)CC2)c(C)c1 [Molecule 58, 1,4-bis [(mesityloxy)acetyl] piperazine]
> 10 µg/mL | 25% | CCN1C2=C(C(=O)CCC2)C(c2ccc(OCc3ccc(C)cc3)c(Cl)c2)C2=C1CCCC2=O [Molecule 79]
~10 µg/mL (≈ 22.5 µM) | 28% | COc1ccc(OCC(=O)NCc2cc(-c3nn(C)c(=O)c4ccccc34)ccc2C)cc1 [Molecule 72, 2-(4-methoxyphenoxy)-N-[2-methyl-5-(3-methyl-4-oxo-3,4-dihydro-1-phthalazinyl)benzyl]acetamide]
~5 µg/mL (≈ 10.3 µM) | 11% | Cc1ccc(-c2nnc(N3CCN(C(=O)CSc4nc(C)cc(C)n4)CC3)c3ccccc23)cc1 [Molecule 87, 1-(4-{[(4,6-dimethyl-2-pyrimidinyl)thio]acetyl}-1-piperazinyl)-4-(4-methylphenyl) phthalazine]
> 10 µg/mL | 47.5% | Cn1c(SCC(=O)NCC2CCCO2)nnc1-c1ccc(NC(=O)c2ccccc2Cl)cc1 (centres unmarked) [Molecule 47]
